Reference: patent publication US20020197233A1, “Methods of treating central nervous system ischemic or hemorrhagic injury using anti alpha4 integrin antagonists” (priority 1999, published 2002)

Tests used:
[1] = system: spontaneously hypertensive rats (SHRs); test: Reversible middle cerebral artery occlusion (MCAO), infarct volume, spontaneously hypertensive rats; assay type: in vivo, rat; conditions: 300 ng/kg/min continuous subcutaneous infusion, vs vehicle treated controls, 24 h after induction of cerebral ischemia (1 h MCAO)
Protocol: (§1) Male Sprague Dawley (SD) or spontaneously hypertensive rats (SHRS) were anesthetized using isoflurane and the right middle cerebral artery (MCAO) occluded by insertion of a 4-0 nylon monofilament up the internal carotid artery to the origin of the middle cerebral artery (MCA) (Zea Longa et al, 1989 Stroke 20:84). After 1 h the filament was retracted, the ischemic territory reperfused and the animal allowed to recover. After 24 h the rats were sacrificed, at which time brains were removed and analyzed histologically to quantify infarct volume.
(§2) Groups of animals were treated with either vehicle (PBS) or the bradykinin B2 receptor antagonist Hoe 140 (Hoechst) by continuous subcutaneous infusion via osmotic mini-pumps. Primed mini osmotic pumps (Alza Corp.,) were implanted into the subcutaneous space at the scruff of the neck immediately prior to induction of cerebral ischemia. The pumps were loaded to release 300 ng/kg/min Hoe 140 and delivered compound or vehicle at a rate of 8 μl/h.
(§3) In a separate experiment groups of animals were treated with either vehicle (sterile isotonic saline), TA2 (mouse anti rat VLA4: Seikagaku America Inc.) or an isotype control antibody (mouse anti-human LFA3: obtained from Biogen, Inc.). All treatments were administered 24 h before surgery intravenously (2.5 mg/kg or appropriate volume of vehicle)
(§4) Vehicle treated control rats that underwent MCAO sustained extensive lesions throughout cortical and subcortical regions of the brain. The ischemic hemisphere was markedly swollen and significant behavioral deficits were observed (eg. hemiparesis resulting in rotation and limb weakness). Spontaneously hypertensive rats sustained more extensive and reproducible brain infarcts than Sprague Dawley rats subjected to the same surgical procedure. Infarct volumes are expressed as mean values+/−s.e.m. Statistical analysis was performed using an unpaired Students' t-test (* denotes p<0.05, ** denotes p<0.01).

Sprague Dawley (SD) rats = test: Reversible middle cerebral artery occlusion (MCAO), infarct volume, Sprague Dawley rats; assay type: in vivo, rat; conditions: 300 ng/kg/min continuous subcutaneous infusion, vs vehicle treated controls, 24 h after induction of cerebral ischemia (1 h MCAO)
Protocol: as §1, §2, §3, §4

Hoe 140
reduction of cortical infarct volume [1]: 43%
reduction of subcortical infarct volume [1]: 17%
reduction of total infarct volume [1]: 37%
reduction of cortical infarct volume (Sprague Dawley (SD) rats): 93%
reduction of subcortical infarct volume (Sprague Dawley (SD) rats): 24%
reduction of total infarct volume (Sprague Dawley (SD) rats): 57%
